Source: patent US20040138301A1, “Chemical uncouplers for the treatment of obesity” (priority 2002, published 2004)
Where two headings read alike, the source gives them in different places.

System: FSK-4 cells
Test: Assay (IV): Glucose utilisation in FSK-4 cells
Format: cell-based
Conditions: for EC50: read-out: FSK4 EC50; for Emax: read-out: FSK4 Emax (% of FCCP)
Experimental: Assay (IV): Glucose Utilisation in FSK-4 Cells
The assay measures indirectly the activity of the respiratory chain in FSK-4 cells by using D-(6-^3H(N))-glucose. The ^3H-proton will first be released in the TCA cyclus and transported to the respiratory chain where it will be incorporated into water. The water is thereafter separated from the D-(6-^3H(N))-glucose by evaporation. Finally, the radioactivity in the water is determined using a Topcounter.
FSK-4 cells obtained from ATCC (Maryland, USA), are cultured in growth medium (McCoy's medium with the following addition 100 units/ml penicillin and streptomycin and 10% FCS (fetal calf serum)) at 37° C. and 5% CO2. All media are obtained by Gibco (Life Technologies, Maryland, USA) where not otherwise mentioned.
At day zero the cells are harvested using trypsin-EDTA and washed in assay medium (MEM medium with the following addition 1× non-essential amino acids (M7145, 2 mM glutamin, 100 units/ml pencillin and streptomycin, 0.0075% sodium bicarbonate, 1 mM sodium pyrovate and 2% horse serum) using centrifugation. The cells are plated into single StripPlates wells (Corning B.V.Life Sciences, The Netherlands) that are placed into 24-well plates (Corning B.V.Life Sciences, The Netherlands) with a concentration of 1,5×10^4 cells/100 μl assay medium/well. The cells are then incubated at 37° C. and 5% CO2 overnight.
The next day the compounds to be tested are diluted to different concentrations in DMSO (Sigma, Missouri, USA) to 100 times final concentration. They are then diluted to a final concentration in assay medium containing 10 μCi/ml D-(6-^3H(N))-glucose (PerkinElmer Life Sciences Inc., Boston, USA). The medium is removed from the cells and 200 μl of the compound dilutions are added in duplicates. The cells are then incubated for another 24 hours at 37° C. and 5% CO2. Finally the cells are lysed by adding 50 μl 10% TCA (tri-chloroacetatic acid). 300 μl of sterile water is then added to the 24-wells that surrounds the StripPlate wells. The plate is sealed with Top-seal-tape (Packard, PerkinElmer Life Sciences Inc., Boston, USA) and the plate is incubated in a heating cupboard at 50° C. to equilibrium the radioactive water formed in the respiratory chain into the water in the 24-well plate by evaporate. The plates incubate for 8 hours where the heating cupboard is turned off. The top seal is removed when the samples have reached room temperature. One ml scintillation liquid (Packard Microscient, PerkinElmer Life Sciences Inc., Boston, USA) is added to all the samples and the radioactivity is determined using a Topcounter (Packard, PerkinElmer Life Sciences Inc., Boston, USA). Non-specific activity is determined by evaporating 200 μl of the dilution medium containing the D-(6-^3H(N))-glucose into 300 μl sterile water, and total radioactivity is determined by counting 5 μl assay medium with 10 μCi/ml D-(6-^3H(N))-glucose.
All calculations are done using GraphPad Prism 3.0 (GraphPad software, Inc.) From concentration-response curves the half maximal concentration (EC50) and maximal efficacy (Emax) are calculated using equation 1.
Y=Bottom+(Top−Bottom)/(1+10^((LogEc50-X)*slope))
X is the logarithm of the molar concentration of the test compound.
Y is the degree of stimulation caused by the compound measured as percentage of the basal stimulation.
The calculated EC50 value is then used to determine the concentrations used in a study where the Hill slope is calculated.
From the double logarithmic plot of the increase in glucose utilisation and the compound concentration the Hill slope is calculated accordingly to equation 2.
It is presumed, that the maximal increase in the glucose utilisation (as measured in the FSK-4 glucose utilisation assay) is limited by the capacity of the metabolism.

[1] = FSK-4 cells, glucose utilisation, 24 hours incubation
[2] = FSK-4 cells, maximal efficacy relative to FCCP

Row | SMILES | EC50 [1] [nM] | Emax [2] [%] | EC50 (24 h) [nM] | Emax [%]
1 | N#CC(C#N)=Cc1c[nH]c2ccc([N+](=O)[O-])cc12 [Example 35, 2-(5-Nitro-1H-Indol-3-Ylmethylene)-Malononitrile] | 5000 | 50 | – | –
2 | Cc1[nH]c2ccc([N+](=O)[O-])cc2c1C=C(C#N)C#N [Example 36, 2-(2-Methyl-5-Nitro-1H-Indol-3-Ylmethylene)-Malononitrile] | – | – | 6350 | 76
3 | CC(C)(C)c1cc(/C=C(\C#N)C(=O)Nc2ccc(Cl)cc2)cc(C(C)(C)C)c1O [Example 83, N-(4-Chloro-Phenyl)-2-Cyano-3-(3,5-Di-Tert-Butyl-4-Hydroxy-Phenyl)-Acrylamide] | 1100 | 120 | – | –
4 | CC(C)(C)c1cc(/C=C(\C#N)S(C)(=O)=O)cc(C(C)(C)C)c1O [Example 84, (E)-3-(3,5-Di-Tert-Butyl-4-Hydroxy-Phenyl)-2-Methanesulfonyl-Acrylonitrile] | 1400 | – | – | –
5 | CC(C)(C)c1cc(/C=C(\C#N)S(=O)(=O)c2ccc(Cl)cc2)cc(C(C)(C)C)c1O [Example 85, (E)-2-(4-Chloro-Benzenesulfonyl)-3-(3,5-Di-Tert-Butyl-4-Hydroxy-Phenyl)-Acrylonitrile] | 800 | – | – | –
6 | CC(C)(C)c1cc(/C=C(\C#N)S(=O)(=O)c2ccc(F)cc2)cc(C(C)(C)C)c1O [Example 86, (E)-3-(3,5-Di-Tert-Butyl-4-Hydroxy-Phenyl)-2-(4-Fluoro-Benzenesulfonyl)-Acrylonitrile] | 1000 | – | – | –
7 | CC(C)(C)c1cc(/C=C(\C#N)S(=O)(=O)c2ccccc2)cc(C(C)(C)C)c1O [Example 87, (E)-2-Benzenesulfonyl-3-(3,5-Di-Tert-Butyl-4-Hydroxy-Phenyl)-Acrylonitrile] | 700 | – | – | –
8 | CC(C)S(=O)(=O)/C(C#N)=C/c1cc(C(C)(C)C)c(O)c(C(C)(C)C)c1 [Example 88, (E)-3-(3,5-Di-Tert-Butyl-4-Hydroxy-Phenyl)-2-(Propane-2-Sulfonyl)-Acrylonitrile] | 500 | – | – | –
9 | CC(C)(C)c1cc(/C=C(\C#N)S(=O)(=O)c2cc(Cl)ccc2Cl)cc(C(C)(C)C)c1O [Example 89, 3-(3,5-Di-Tert-Butyl-4-Hydroxy-Phenyl)-2-(2,5-Dichloro-Benzenesulfonyl)-Acrylonitrile] | 500 | – | – | –
10 | CC(C)(C)c1cc(/C=C(\C#N)S(=O)(=O)c2ccc(Cl)cc2Cl)cc(C(C)(C)C)c1O [Example 90, 3-(3,5-Di-Tert-Butyl-4-Hydroxy-Phenyl)-2-(2,4-Dichloro-Benzenesulfonyl)-Acrylonitrile] | 600 | – | – | –
11 | CCCCCCS(=O)(=O)/C(C#N)=C/c1cc(C(C)(C)C)c(O)c(C(C)(C)C)c1 [Example 91, 3-(3,5-Di-Tert-Butyl-4-Hydroxy-Phenyl)-2-(Hexane-1-Sulfonyl)-Acrylonitrile] | 3800 | – | – | –
12 | CC(C)(C)c1cc(/C=C(\C#N)S(=O)(=O)c2ccc(Br)cc2)cc(C(C)(C)C)c1O [Example 92, 2-(4-Bromo-Benzenesulfonyl)-3-(3,5-Di-Tert-Butyl-4-Hydroxy-Phenyl)-Acrylonitrile] | 1000 | – | – | –
13 | CC(C)(C)c1cc(/C=C(\C#N)S(=O)(=O)c2cccc(Br)c2)cc(C(C)(C)C)c1O [Example 93, 2-(3-Bromo-Benzenesulfonyl)-3-(3,5-Di-Tert-Butyl-4-Hydroxy-Phenyl)-Acrylonitrile] | 100 | – | – | –
14 | CC(C)(C)c1cc(Br)cc(C(=O)Nc2ccc(C#N)cc2Cl)c1O [Example 94, 5-Bromo-3-Tert-Butyl-N-(2-Chloro-4-Cyanophenyl)-2-Hydroxybenzamide] | 100 | 90 | – | –
15 | Cc1c(Br)cc(C(C)(C)C)c(O)c1C(=O)Nc1ccccc1C(F)(F)F [Example 96, 3-Bromo-5-Tert-Butyl-6-Hydroxy-2-Methyl-N-(2-Trifluoromethylphenyl)Benzamide] | 20000 | 40 | – | –
16 | N#CC(C#N)=Cc1c(Br)[nH]c2ccccc12 [Example 97, 2-(2-Bromo-1H-Indol-3-Ylmethylene)Malononitrile] | 1500 | 55 | – | –
17 | Cc1[nH]c2c(Br)cccc2c1C=C(C#N)C#N [Example 98, 2-(7-Bromo-2-Methyl-1H-Indol-3-Ylmethylene)Malononitrile] | 6600 | 105 | – | –
18 | Cc1[nH]c2ccc(Br)cc2c1C=C(C#N)C#N [Example 99, 2-(5-Bromo-2-Methyl-1H-Indol-3-Ylmethylene)Malononitrile] | 1700 | 40 | – | –
